In patent publication US8754093B2, “Co-crystal of etravirine and nicotinamide” (Janssen R&D Ireland, priority 2009, dated 2014):

Legend:
[1] = traditional formulations; cited from earlier work
[2] = cited from earlier work
[3] = Dissolution experiments with TMC125/nicotinamide co-crystal (10 mM HCl with 1% TPGS, HPLC); type: physicochemical; settings: Simulated Gastric Fluid with 1% TPGS, 37° C., 500 rpm
Protocol: This dissolution experiment was focused on looking at the difference between the cocrystal and TMC125 free base both neat and mixed with HPMC E5 Cps.
A: 100 mg co-crystal: 100 mg HPMC E5 Cps (powder blend)
B: 100 mg co-crystal (powder)
C: 78 mg free base: 100 mg HPMC E5 Cps (powder blend)
D: 78 mg free base (powder)
Powders were dispensed to 20 mL vials and in 20 mL of 10 mM HCl with 1% TPGS (d-alpha-tocopheryl polyethylene glycol 1000 succinate) was added to each vial. Each […], filtered through a 0.45 μm nylon filter via centrifugation and the solute was diluted in half and analyzed by HPLC for the concentration of TMC125.

Concentration of TMC125 ([3]; time 5 min): 22.36 µg/mL
Concentration of TMC125 ([3]; time 10 min): 52.04 µg/mL
Concentration of TMC125 ([3]; time 20 min): 57.03 µg/mL
Concentration of TMC125 ([3]; time 30 min): 58.96 µg/mL
Concentration of TMC125 ([3]; time 45 min): 59.83 µg/mL
Concentration of TMC125 ([3]; time 60 min): 60.10 µg/mL
SMILES: Cc1cc(C#N)cc(C)c1Oc1nc(Nc2ccc(C#N)cc2)nc(N)c1Br [Neat TMC125 FB, 4-[[6-amino-5-bromo-2-[(4-cyanophenyl)amino]-4-pyrimidinyl]oxy]-3,5-dimethylbenzonitrile]
bioavailability [1]: very low
solubility in aqueous media [2]: very insoluble
